How the values were obtained:
[1] = molecular target: Protein kinase C gamma type (Homo sapiens, UniProt P05129); assay: Inhibition of Protein kinase C gamma
[2] = molecular target: T1, Protein kinase C beta type (Homo sapiens, UniProt P05771); assay: Inhibition of Protein kinase C beta 2
[3] = molecular target: T2, Protein kinase C epsilon type (Homo sapiens, UniProt Q02156); assay: Inhibition of Protein kinase C epsilon
T2 sequence (Q02156 whole entry): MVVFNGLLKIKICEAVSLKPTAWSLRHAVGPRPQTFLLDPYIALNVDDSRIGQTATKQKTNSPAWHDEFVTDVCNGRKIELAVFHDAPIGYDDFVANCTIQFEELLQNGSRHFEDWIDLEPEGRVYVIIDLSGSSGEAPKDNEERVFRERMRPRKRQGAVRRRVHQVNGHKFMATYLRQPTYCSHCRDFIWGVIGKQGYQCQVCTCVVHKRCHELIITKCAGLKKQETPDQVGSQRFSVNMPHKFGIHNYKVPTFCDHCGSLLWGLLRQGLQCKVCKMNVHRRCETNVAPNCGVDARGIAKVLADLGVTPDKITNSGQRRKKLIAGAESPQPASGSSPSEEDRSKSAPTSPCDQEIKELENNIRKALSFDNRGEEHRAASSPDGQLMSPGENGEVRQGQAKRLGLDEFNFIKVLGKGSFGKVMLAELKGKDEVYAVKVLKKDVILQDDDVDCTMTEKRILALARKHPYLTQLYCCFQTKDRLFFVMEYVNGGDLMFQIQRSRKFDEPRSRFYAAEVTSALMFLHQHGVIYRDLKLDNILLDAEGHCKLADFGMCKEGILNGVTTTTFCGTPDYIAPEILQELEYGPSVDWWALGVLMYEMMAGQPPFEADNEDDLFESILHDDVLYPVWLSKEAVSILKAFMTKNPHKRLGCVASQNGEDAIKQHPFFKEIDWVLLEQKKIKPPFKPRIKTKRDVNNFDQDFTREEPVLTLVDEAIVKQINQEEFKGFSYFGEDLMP

[4] = molecular target: T1, Protein kinase C beta type; assay: Inhibition of Protein kinase C beta 1
[5] = molecular target: Protein kinase C delta type (Homo sapiens, UniProt Q05655); assay: Inhibition of Protein kinase C delta
[6] = molecular target: Protein kinase C eta type (Homo sapiens, UniProt P24723); assay: Inhibition of Protein kinase C eta
[7] = molecular target: Protein kinase C alpha type (Homo sapiens, UniProt P17252); assay: Inhibition of Protein kinase C alpha
[8] = molecular target: T3, Protein kinase C zeta type (Homo sapiens, UniProt Q05513); assay: Inhibition of Protein kinase C zeta
T3 sequence (Q05513 whole entry): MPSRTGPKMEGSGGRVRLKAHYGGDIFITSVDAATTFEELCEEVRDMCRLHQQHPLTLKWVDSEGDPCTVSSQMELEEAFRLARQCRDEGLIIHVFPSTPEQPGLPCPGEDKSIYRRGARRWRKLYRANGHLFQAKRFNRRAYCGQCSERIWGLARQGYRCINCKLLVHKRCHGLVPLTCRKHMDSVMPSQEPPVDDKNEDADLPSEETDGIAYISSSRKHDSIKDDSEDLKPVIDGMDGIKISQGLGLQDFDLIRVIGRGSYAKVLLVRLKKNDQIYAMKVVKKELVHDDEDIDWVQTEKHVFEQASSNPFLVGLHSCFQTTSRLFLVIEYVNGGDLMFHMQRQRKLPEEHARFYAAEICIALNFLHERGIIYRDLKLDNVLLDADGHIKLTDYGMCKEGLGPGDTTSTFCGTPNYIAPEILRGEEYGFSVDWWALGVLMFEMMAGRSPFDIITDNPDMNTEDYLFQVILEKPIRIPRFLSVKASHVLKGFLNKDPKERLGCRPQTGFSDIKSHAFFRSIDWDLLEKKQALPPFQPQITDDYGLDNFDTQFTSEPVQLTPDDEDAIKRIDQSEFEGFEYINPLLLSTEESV

[9] = Inhibition of purified rat brain casein kinase II
[10] = molecular target: Proto-oncogene tyrosine-protein kinase Src (Homo sapiens, UniProt P12931); assay: Inhibition of Src protein tyrosine kinase
[11] = Inhibition of cAMP dependent protein kinase catalytic subunit of bovine heart; parameters: species or system Bos taurus
Protein kinase C (PKC) = assay: Inhibition of purified rat brain protein kinase C (RB-PKC)
CaM kinase II = CaM kinase II (Homo sapiens, UniProt Q13557+Q13555+Q13554+Q9UQM7); assay: Inhibition of purified mammalian brain [Ca(2+)]/Calmodulin dependent kinase

Chain of Proto-oncogene tyrosine-protein kinase Src (P12931 2-536 limits assumed): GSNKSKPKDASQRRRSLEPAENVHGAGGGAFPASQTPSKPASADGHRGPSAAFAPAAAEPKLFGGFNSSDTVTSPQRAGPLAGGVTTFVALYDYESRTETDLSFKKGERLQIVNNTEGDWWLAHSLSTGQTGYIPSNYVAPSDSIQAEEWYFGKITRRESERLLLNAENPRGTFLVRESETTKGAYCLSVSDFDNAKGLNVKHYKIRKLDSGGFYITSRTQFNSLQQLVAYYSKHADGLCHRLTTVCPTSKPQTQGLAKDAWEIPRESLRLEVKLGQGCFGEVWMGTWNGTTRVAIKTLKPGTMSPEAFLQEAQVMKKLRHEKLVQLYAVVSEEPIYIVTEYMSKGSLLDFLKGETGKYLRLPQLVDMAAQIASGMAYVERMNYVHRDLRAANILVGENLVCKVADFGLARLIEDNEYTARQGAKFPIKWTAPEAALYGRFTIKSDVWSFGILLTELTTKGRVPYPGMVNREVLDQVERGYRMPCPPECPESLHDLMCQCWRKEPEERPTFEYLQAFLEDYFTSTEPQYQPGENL
T1 sequence (P05771 whole entry): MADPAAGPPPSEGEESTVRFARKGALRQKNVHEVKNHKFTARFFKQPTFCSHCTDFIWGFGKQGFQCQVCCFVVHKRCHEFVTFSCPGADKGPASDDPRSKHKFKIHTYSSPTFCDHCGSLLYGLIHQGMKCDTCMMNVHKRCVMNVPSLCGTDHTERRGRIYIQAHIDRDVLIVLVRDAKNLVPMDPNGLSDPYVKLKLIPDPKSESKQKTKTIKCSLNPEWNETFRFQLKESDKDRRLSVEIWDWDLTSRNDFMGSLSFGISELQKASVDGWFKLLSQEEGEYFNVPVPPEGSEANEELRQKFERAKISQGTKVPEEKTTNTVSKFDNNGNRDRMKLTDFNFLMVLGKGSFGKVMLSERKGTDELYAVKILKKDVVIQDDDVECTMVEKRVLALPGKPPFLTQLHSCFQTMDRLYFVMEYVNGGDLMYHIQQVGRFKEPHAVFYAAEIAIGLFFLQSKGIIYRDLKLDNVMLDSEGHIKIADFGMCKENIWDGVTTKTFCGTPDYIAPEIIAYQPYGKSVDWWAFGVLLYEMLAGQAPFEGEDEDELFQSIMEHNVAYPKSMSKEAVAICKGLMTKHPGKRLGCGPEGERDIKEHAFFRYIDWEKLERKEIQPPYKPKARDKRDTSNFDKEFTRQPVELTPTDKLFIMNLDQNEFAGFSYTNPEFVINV
Chain of Protein kinase C delta type (Q05655 whole entry): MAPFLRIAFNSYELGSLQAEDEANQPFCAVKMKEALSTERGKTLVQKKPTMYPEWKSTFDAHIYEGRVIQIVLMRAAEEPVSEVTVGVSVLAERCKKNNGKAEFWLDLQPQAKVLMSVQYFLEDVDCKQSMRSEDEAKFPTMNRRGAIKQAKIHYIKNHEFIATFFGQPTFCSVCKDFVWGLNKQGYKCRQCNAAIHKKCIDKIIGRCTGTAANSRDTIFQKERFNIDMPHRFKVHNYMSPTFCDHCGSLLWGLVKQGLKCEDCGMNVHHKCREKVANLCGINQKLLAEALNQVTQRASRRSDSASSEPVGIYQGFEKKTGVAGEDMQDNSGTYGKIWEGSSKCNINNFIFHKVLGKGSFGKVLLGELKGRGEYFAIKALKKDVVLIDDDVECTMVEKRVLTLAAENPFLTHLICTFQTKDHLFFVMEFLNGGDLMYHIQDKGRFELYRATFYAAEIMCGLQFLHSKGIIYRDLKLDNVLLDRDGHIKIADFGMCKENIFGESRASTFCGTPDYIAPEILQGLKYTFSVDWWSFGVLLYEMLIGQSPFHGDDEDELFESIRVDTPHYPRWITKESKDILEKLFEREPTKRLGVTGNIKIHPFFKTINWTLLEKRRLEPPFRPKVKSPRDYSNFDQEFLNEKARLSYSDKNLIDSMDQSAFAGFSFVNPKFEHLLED
Chain of Protein kinase C eta type (P24723 whole entry): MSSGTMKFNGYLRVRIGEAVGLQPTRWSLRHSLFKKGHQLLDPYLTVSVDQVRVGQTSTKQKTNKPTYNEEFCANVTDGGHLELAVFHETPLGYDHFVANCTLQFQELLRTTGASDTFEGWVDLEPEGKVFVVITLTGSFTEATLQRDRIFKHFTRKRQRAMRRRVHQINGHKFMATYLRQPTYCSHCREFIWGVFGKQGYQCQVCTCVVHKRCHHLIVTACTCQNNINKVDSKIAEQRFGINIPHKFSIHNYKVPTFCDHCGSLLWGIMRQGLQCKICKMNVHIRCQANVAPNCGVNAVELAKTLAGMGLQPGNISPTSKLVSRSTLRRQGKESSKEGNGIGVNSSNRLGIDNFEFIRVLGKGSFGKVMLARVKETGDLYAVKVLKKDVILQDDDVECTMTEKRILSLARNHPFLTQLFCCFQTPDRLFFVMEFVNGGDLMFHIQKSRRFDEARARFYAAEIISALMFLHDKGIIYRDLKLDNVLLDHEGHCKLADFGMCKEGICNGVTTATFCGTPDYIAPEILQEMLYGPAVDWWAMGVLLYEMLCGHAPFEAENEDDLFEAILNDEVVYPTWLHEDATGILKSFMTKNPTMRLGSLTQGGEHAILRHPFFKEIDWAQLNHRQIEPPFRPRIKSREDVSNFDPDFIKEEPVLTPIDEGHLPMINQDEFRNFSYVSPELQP

Structure (SMILES)	IC50 [1]	IC50 [2]	IC50 [3]	IC50 [4]	IC50 [5]	IC50 [6]	IC50 [7]	IC50 [8]	IC50 [9]	IC50 [10]	IC50 [11]	IC50 (Protein kinase C (PKC))	IC50 (CaM kinase II)
Cn1cc(C2=C(c3cn(C4CCN(C(=O)OC(C)(C)C)CC4)c4ccccc34)C(=O)NC2=O)c2ccccc21	5 µM	0.08 µM	6 µM	0.2 µM	7 µM	8 µM	6 µM	> 100 µM	–	–	–	–	–
Cn1cc(C2=C(c3cn(C4CCN(CC5CC5)CC4)c4ccccc34)C(=O)NC2=O)c2ccccc21	–	–	–	–	–	–	–	–	> 100 µM	68 µM	> 100 µM	0.3 µM	–
CN1CCC(n2cc(C3=C(c4cn(C)c5ccccc45)C(=O)NC3=O)c3ccccc32)CC1	–	–	–	–	–	–	–	–	> 100 µM	> 100 µM	7 µM	0.2 µM	–
Cn1cc(C2=C(c3cn(C4CCN(Cc5ccccc5)CC4)c4ccccc34)C(=O)NC2=O)c2ccccc21	–	–	–	–	–	–	–	> 100 µM	> 40 µM	> 100 µM	> 100 µM	4 µM	> 40 µM
Cn1cc(C2=C(c3cn(C4CCN(Cc5ccccn5)CC4)c4ccccc34)C(=O)NC2=O)c2ccccc21 [ENZASTAURIN]	–	–	–	–	–	–	–	–	> 100 µM	–	> 100 µM	0.7 µM	–
Cn1cc(C2=C(c3cn(C4CCN(Cc5ccccc5)C4)c4ccccc34)C(=O)NC2=O)c2ccccc21 (stereo unspecified)	3.5 µM	0.024 µM	9.4 µM	0.022 µM	4.2 µM	0.042 µM	3.8 µM	> 100 µM	> 100 µM	–	> 100 µM	2.8 µM	–
CC(C)N1CCC(n2cc(C3=C(c4cn(C)c5ccccc45)C(=O)NC3=O)c3ccccc32)CC1	–	–	–	–	–	–	–	–	> 100 µM	–	> 100 µM	0.25 µM	–
CN(C)C[C@@H]1CCn2cc(c3ccccc32)C2=C(C(=O)NC2=O)c2cn(c3ccccc23)CCO1	–	–	–	–	–	–	–	–	> 100 µM	–	> 100 µM	–	–
CN1CCC(n2cc(C3=C(c4c[nH]c5ccccc45)C(=O)NC3=O)c3ccccc32)CC1	–	–	–	–	–	–	–	–	91 µM	83 µM	4 µM	0.2 µM	3 µM
Cn1cc(C2=C(c3cn(C4CCNCC4)c4ccccc34)C(=O)NC2=O)c2ccccc21	–	–	–	–	–	–	–	–	> 100 µM	–	1 µM	–	–
CCN1CCC(n2cc(C3=C(c4cn(C)c5ccccc45)C(=O)NC3=O)c3ccccc32)CC1	–	–	–	–	–	–	–	–	> 100 µM	11 µM	8 µM	–	–
